Test results from US9420770B2, “Methods of modulating thrombocytopenia and modified transgenic pigs” (Indiana University Research and Technology Corporation, priority 2009, dated 2016).

Assays:
Assay type in all cases: cell-based, pig
ASGR1 mRNA = test: siRNA reduction of ASGR1: transcript levels by quantitative PCR; conditions: 48 hours after siRNA treatment
Description: RNA extraction was performed on cultured LSEC and tissues harvested from domestic and GTKO/hDAF pigs. Total RNA was extracted from LSEC and low-fiber tissues using the RNeasy Minikit (Qiagen, Valencia Calif.). RNA from fiber-rich tissue was isolated using the RNeasy fibrous tissue kit (Qiagen, Valencia Calif.). RNA quality was assessed using an Agilent 2100 Bioanalyzer (Biotechnology Research and Training Center IUPUI). Reverse transcription was performed using Quantitect Reverse Transcription kit (Qiagen, Valencia Calif.). Presence/absence experiments of endogenous mRNA were performed on a 9700 Applied Biosystems™ cycler. Products were run using Quantitect Sybr Green (Qiagen, Valencia Calif.). Endogenous mRNA levels were measured by real-time quantitative PCR analysis on a STEP-ONE PLUS (Applied Biosystems™, Carlsbad Calif.) real time PCR system and comparative CT analysis was performed. Gene expression assays for porcine ASGR1 and β-actin AI6RMY and SSO 3376160-u1 (Applied Biosystems™, Carlsbad Calif.) were used. […]
(§1) siRNA sense and antisense oligos were designed to the mRNA sequence of ASGR1 (FIG. 17C). […] ASGR1 transcript levels were determined by quantitative PCR. ASGR1 protein levels were analyzed.

ASGR1 protein = test: siRNA reduction of ASGR1: protein levels by immunoblotting; conditions: 48 hours after siRNA treatment
Description: LSECs were resuspended in Laemmli sample buffer with protease arrest (G-bioscience™, Maryland Heights Mo.). Samples were electrophoresed on SDS-polyacrylamide gels (SDS-PAGE). Polypeptides were transferred to membranes for immunoblot or lectin blot analysis. Membranes were blocked by incubation with 50% Odyssey blocking buffer (LI-COR Biosciences™, Lincoln Nebr.) in phosphate buffered saline (PBS) for approximately one hour. Membranes were incubated with anti-ASGR1 (Santa Cruz Biotechnologies™, Santa Cruz Calif.), anti-GAPDH (Millipore™, Billerica Mass., MAB374), anti-β-actin (Rockland Immunochemicals for Research, Gilbertsville Pa.), or anti-CD42b (Santa Cruz Biotechnologies™, SC-13467) according to the manufacturer's recommended protocol. Membranes were also incubated with ECA-biotin (EY Laboratories San Mateo Calif.) in a calcium containing buffer. Following primary antibody or lectin binding, membranes were washed. Membranes were incubated with the appropriate secondary antibody or streptavidin conjugated to either IRDye 800CW or IRDye680CW (LI-Cor Biosciences™). […] Protein bands were quantified by intensity using the LI-COR software.
as §1

porcine primary LSECs = test: Platelet phagocytosis assay with siRNA treated LSECs; conditions: 48 hours after siRNA treatment, n=3
Description: Primary LSECs were cultured in black walled-clear bottomed, cell culture treated 96-well plates (approximately 100,000 cells/well). The plated cells were incubated at 37° C. and 5% CO2 for four, five or six days as indicated. Four million CFSE-labeled platelets were added to wells in 96 well plates containing primary LSEC and media. Plates were centrifuged at 2000×g to synchronize the wells. At predetermined time points, the incubations were stopped. Duplicate wells for each time point were washed with PBS three times. After washing, the cells were incubated with 4% paraformaldehyde-PBS solution for 20 minutes to fix the cells. The wells were washed with PBS. 50 μl PBS was placed in each well. After obtaining the timepoints, the plates were read for fluorescence using a Spectra Max M2e plate reader (Molecular Devices Co.) set to read 9 different points within each well. Wells with LSECs and without CFSE-labeled platelets were used to determine the auto-fluorescence of LSECs. Data points from at least three separate porcine LSEC experiments were averaged and the standard deviation was obtained.
siRNA sense and antisense oligos were designed to the mRNA sequence of ASGR1 (FIG. 17C). […] ASGR1 transcript levels were determined by quantitative PCR. ASGR1 protein levels were analyzed. […]

LSEC = test: High-throughput fluorescent 96-well phagocytosis assay (ELISA based fluorescent assay) with platelets and LSEC; conditions: compound at 5 mg/ml, 0.5 mg/ml or none, FIG. 9 panel B
Description: A high-throughput fluorescent 96-well phagocytosis assay was performed using human and baboon platelets and LSEC. The compounds of interest asialofeutin or feutin were added to the samples. Experiments were performed with reduced calcium or in the presence of the chelating agent, EDTA.

[1] = tested on: Domestic and GTKO/hDAF LSEC cultures; test: Inhibition of platelet phagocytosis assay: fetuin / asialofetuin, CFSE-labeled human platelets; conditions: LSECs from domestic or GTKO/hDAF pigs; 0.5-20 μg/ml; FIG. 15 panel A
Description: Fetuin, a glycoprotein composed of sialic acid terminated galactose β1, −4 N-acetylglucosamine (Galβ) oligosaccharides, and asialofetuin, a derivative of fetuin lacking the terminal sialic acid saccharides and with exposed Galβ oligosaccharides were utilized to evaluate platelet binding. Domestic (n=2-5) and GTKO/hDAF (n=5) LSEC cultures were established. Cultures were incubated with 0.5, 2.5, 5, 10 or 20 μg/ml fetuin or asialofetuin. After incubations, CFSE-labeled human platelets were added to the cultures. Platelet binding and phagocytosis was measured using a spectromax plate reader. The percent of platelet binding was calculated.

In the case of “ASGR1 siRNA: double-stranded siRNA to ASGR1 mRNA; sense strand SEQ ID NO:11, antisense strand SEQ ID NO:12 (sense CAGCAUGCAGGGAGGAAAUUU; antisense AUUUCCUCCCUGCAUGCUGUU; chemistry not given here)”, the “ASGR1 mRNA levels relative to non-specifically treated cells (siGenome)” value (ASGR1 mRNA; GTKO/hDAF LSECs) is reported as 20%, the “ASGR1 mRNA levels relative to non-specifically treated cells (siGenome)” value (ASGR1 mRNA; domestic LSECs) is reported as 56% and the “ASGR1 protein levels relative to non-specifically treated cells (siGenome)” value (ASGR1 protein; GTKO/hDAF LSECs) is reported as 87%. The “ASGR1 protein levels relative to non-specifically treated cells (siGenome)” value (ASGR1 protein; domestic LSECs) was 80%, the “platelet phagocytosis compared to siGenome transfected LSECs” value (porcine primary LSECs; GTKO/hDAF LSECs) was 69% and the “platelet phagocytosis compared to siGenome transfected LSECs” value (porcine primary LSECs; domestic LSECs) was 79%.
With Fetuin the “inhibition of binding of baboon platelets (RFI)” value (LSEC) was “not feutin inhibits binding” and the “inhibition of binding of human platelets (RFI)” value (LSEC) was “not feutin inhibits binding”.
asialofetuin was tested, and the “inhibition of binding of baboon platelets (RFI)” value (LSEC) was “inhibits binding”, the “inhibition of binding of human platelets (RFI)” value (LSEC) was “inhibits binding” and the “percent of human platelet binding by LSECs” value [1] was “significantly reduced”.
